Series [1] in a line: logP by HPLC on reversed-phase column (C 18), EEC Directive 79/831 Annex V.A8. To be noted: C 18, 40° C., 0.1% aqueous formic acid and acetonitrile; for chromatographic logP: reversed-phase HPLC column (C 18), read-out: logPa. The series is classed as physicochemical. On the procedure:
Temperature: 40° C.; Mobile phases: 0.1% aqueous formic acid and acetonitrile; linear gradient from 10% acetonitrile to 90% acetonitrile.
Calibration was carried out using unbranched alkan-2-ones (comprising 3 to 16 carbon atoms) with known logP values (determination of the logP values by the retention times using linear interpolation between two successive alkanones).

Series [2] concerns Puccinia recondita f. Sp. tritici. The experiment in a line: In vivo preventive test on Puccinia recondita f. Sp. tritici (wheat brown rust). To be noted: topical, 240 h, 1000 ppm of active ingredient, evaluated 10 days after inoculation, read-out: efficacy. On the procedure: In Vivo Preventive Test on Puccinia recondita f. Sp. tritici (Wheat Brown Rust)
(§1) To produce a suitable preparation of active compound, 1 part by weight of active compound is mixed with the stated amounts of solvent and emulsifier, and the concentrate is diluted with water to the desired concentration.
To test for preventive activity, young plants are […]. After the spray coating has dried on, the plants are sprayed with the preparation of active compound at the stated rate of application. The plants remain for 24 hours in an incubation cabinet at 20° C. and a relative atmospheric humidity of 100%.
The plants are placed in a greenhouse at a temperature of approximately 20° C. and a relative atmospheric humidity of approximately 80% to promote the development of rust pustules.
The test is evaluated 10 days after the inoculation. 0% means an efficacy which corresponds to that of the control, while an efficacy of 100% means that no disease is observed.

Series [3] relates to Sphaerotheca fuliginea. The series can be described thus: In vivo protective test on Sphaerotheca fuliginea (cucumbers). To be noted: Podosphaera fuliginea, topical, 168 h, 100 ppm of active ingredient, evaluated 7 days after inoculation, read-out: efficacy. On the procedure: In Vivo Protective Test on Sahaerotheca fuliginea (Cucumbers)
as §1
To test for protect activity, young plants are sprayed with the preparation of active compound at the stated rate of application. After the spray coating has dried on, the plants are inoculated with an aqueous spore suspension of Sphaerotheca fuliginea. The plants are then placed in a greenhouse at approximately 23° C. and a relative atmospheric humidity of approximately 70%.
(§2) The test is evaluated 7 days after the inoculation. 0% means an efficacy which corresponds to that of the control, while an efficacy of 100% means that no disease is observed.

Series [4] relates to Podosphaera leucotricha. The experiment in a line: In vivo protective test on Podosphaera leucotricha (apples). The settings on record: topical, 240 h, 100 ppm of active ingredient, evaluated 10 days after inoculation, read-out: efficacy. The text has this: In Vivo Protective Test on Podosphaera leucotricha (Apples) [table] […] To test for protective activity, young plants are sprayed with the preparation of active compound at the stated rate of application. After the spray coating has dried on, the plants are inoculated with an aqueous spore suspension of the causal agent of apple mildew (Podosphaera leucotricha).

For series [5], the system named is Erysiphe graminis f.sp. hordei. The series can be described thus: In vivo preventive test on Erysiphe graminis (powdery mildew on barley). The settings on record: Blumeria graminis, topical, 168 h, 1000 ppm of active ingredient, evaluated 7 days after inoculation, read-out: efficacy. The procedure: In Vivo Preventive Test on Erysiphe gramini (Powdery Mildew on Barley)
To produce a suitable preparation of active compound, 1 part by weight of active compound or active compound combination is mixed with the stated amounts of solvent and emulsifier, and the concentrate is diluted with water to the desired concentration.
To test for preventive activity, young plants are sprayed with the preparation of active compound or active compound combination at the stated rate of application.
After the spray coating has dried on, the plants are dusted with spores of Erysiphe graminis f.sp. hordei
The plants are placed in a greenhouse at a temperature of approximately 20° C. and a relative atmospheric humidity of approximately 80% to promote the development of mildew pustules.
as §2

Series [6] has as its system Alternaria solani. The series can be described thus: In vivo protective test on Alternaria solani (leaf spot of tomato). The settings on record: topical, 168 h, 500 ppm of active ingredient, evaluated 7 days after inoculation, read-out: efficacy. On the procedure:
In Vivo Protective Test on Alternaria solani (Leaf Spot of Tomato)
as §1
To test for protective activity, young plants are sprayed with the preparation of active compound at the stated rate of application. After the spray coating has dried on, the plants are inoculated with an aqueous spore suspension of Alternatia solani. The plants remain for one day in an incubation cabinet at approximately 20° C. and a relative atmospheric humidity of 100%. Then the plants are placed in an incubation cabinet at approximately 20° C. and a relative atmospheric humidity of 96%.
The test is evaluated 7 days after the inoculation. 0% means an efficacy which corresponds to that of the control while an efficacy of 100% means that no disease is observed.

Take `Cc1cc(Oc2cc(Cl)c(/N=C/N3CCCCC3C)cc2C)ccc1Cl` (racemic) [Example 52]: the logPa in series [1] turned out to be 2.80.

Regarding `Cc1cc(/N=C/N2CCCCC2C)c(Cl)cc1Oc1ccc(Cl)c(C(C)(C)C)c1` (racemic) [Example 54], the logPa in series [1] is 3.33.

For `Cc1cc(/N=C/N2CCCCC2C)c(Cl)cc1Oc1ccc(Cl)c(C(C)C)c1` (racemic) [Example 62], the logPa in series [1] was found to be 3.07.

For the compound `CCN(C)/C=N/c1cc(C)c(Oc2ccc(Cl)c(C)c2)cc1C` [Example 4], the chromatographic logP in series [1] was found to be 2.31.

As to `Cc1cc(Oc2ccc(Cl)c(C(C)(C)C)c2)c(C)cc1/N=C/N(C)C1CC1` [Example 7], the logPa in series [1] amounted to 2.21.

Consider `CCCN(C)/C=N/c1cc(Cl)c(Oc2ccc(Cl)c(CC)c2)cc1C` [Example 11], for which the chromatographic logP in series [1] is 2.84. Further, the pest or weed control at 1000 ppm in series [2] and in series [5] was ≥ 70% each time. In addition, the pest or weed control at 100 ppm in series [3] and in series [4] was ≥ 70% each time.

In turn, `CCc1cc(Oc2cc(C)c(/N=C/N(C)C3CC3)cc2Cl)ccc1Cl` [Example 12] displayed a logPa in series [1] of 2.89.

Turning to `CCc1cc(Oc2cc(C)c(/N=C/N(C)C3CC3)cc2C)ccc1Cl` [Example 15], in series [1], the logPa came to 2.71.

With `Cc1cc(Oc2cc(C)c(/N=C/N(C)C(C)C)cc2C)ccc1Cl` [Example 16], in series [1], the chromatographic logP was found to be 2.4. The pest or weed control at 500 ppm in series [6] was ≥ 70%. In addition, the pest or weed control at 1000 ppm in series [2] and in series [5] was ≥ 70% throughout. In addition, in series [4], the pest or weed control at 100 ppm was ≥ 70%.

With `Cc1cc(Oc2ccc(Cl)c(C(C)C)c2)c(Cl)cc1/N=C/N(C)C1CC1` [Example 23], the logPa in series [1] came to 2.96.

In series [1], `Cc1cc(Oc2ccc(Cl)c(C(C)(C)C)c2)c(Cl)cc1/N=C/N(C)C1CC1` [Example 24] displayed a logPa of 3.24.

Take `CCCN(C)/C=N/c1cc(C)c(Oc2ccc(Cl)c(C(C)C)c2)cc1C` [Example 27]: the chromatographic logP in series [1] turned out to be 3. Further, the pest or weed control at 1000 ppm in series [2] and in series [5] was ≥ 70% each time. Besides, the pest or weed control at 100 ppm in series [3] and in series [4] was ≥ 70% throughout.

In the case of `CCN(C)/C(S)=N/c1cc(C)c(Oc2ccc(Cl)c(C(C)C)c2)cc1C` [Example 29], the chromatographic logP in series [1] is 4.81. Moreover, the pest or weed control at 1000 ppm in series [2] is ≥ 70%. The pest or weed control at 100 ppm in series [3] and in series [4] was ≥ 70% in each case.

The compound `Cc1cc(Oc2ccc(Br)c(C(C)C)c2)c(Cl)cc1/N=C/N(C)C1CC1` [Example 31] returned a logPa in series [1] of 3.98.

As for `Cc1cc(Oc2ccc(Br)c(C(C)C)c2)c(Cl)cc1/N=C/N(C)C(C)C` [Example 33], in series [1], the chromatographic logP is 3.21.

With `CCCN(C)/C=N/c1cc(Cl)c(Oc2ccc(Br)c(C(C)C)c2)cc1C` [Example 34], the chromatographic logP in series [1] worked out at 2.91. In addition, the pest or weed control at 1000 ppm in series [2] and in series [5] was ≥ 70% throughout. In addition, the pest or weed control at 100 ppm in series [3] and in series [4] was ≥ 70% each time.

`CCN(C)/C(S)=N/c1cc(C)c(Oc2ccc(Cl)c(C(C)(C)C)c2)cc1C` [Example 35] displayed a logPa in series [1] of 5.44. Further, in series [2], the pest or weed control at 1000 ppm is ≥ 70%.

In series [1], `Cc1cc(Oc2ccc(Cl)c(C(C)(C)C)c2)c(Cl)cc1/N=C/N1CCCCC1` [Example 36] yielded a logPa of 3.11.

As to `CCc1cc(Oc2cc(C)c(/N=C/N3CCCCC3)cc2Cl)ccc1Cl` [Example 37], in series [1], the logPa is given as 2.74.

On to `CCN(C)/C=N/c1cc(C#N)c(Oc2ccc(Cl)c(C(C)C)c2)cc1C` [Example 38], for which the chromatographic logP in series [1] is 2.45. Further, the pest or weed control at 1000 ppm in series [2] and in series [5] was ≥ 70% throughout.

In the case of `Cc1cc(/N=C/N(C)C(C)C)c(Cl)cc1Oc1ccc(Cl)c(C(C)(C)C)c1` [Example 39], in series [1], the chromatographic logP amounted to 3.01. Further, the pest or weed control at 1000 ppm in series [2] and in series [5] was ≥ 70% each time. For the same compound, the pest or weed control at 100 ppm in series [3] was ≥ 70%.

Turning to `CCC(C)N(C)/C=N/c1cc(C)c(Oc2ccc(Cl)c(C(C)(C)C)c2)cc1C` (stereo not shown) [Example 40], the chromatographic logP in series [1] came to 3.2. The pest or weed control at 1000 ppm in series [2] was ≥ 70%. Moreover, the pest or weed control at 100 ppm in series [3] is ≥ 70%.

For `CCC(C)N(C)/C=N/c1cc(C)c(Oc2ccc(Cl)c(C(C)C)c2)cc1C` (stereo not shown) [Example 41], the chromatographic logP in series [1] worked out at 2.98. For the same compound, the pest or weed control at 1000 ppm in series [2] is ≥ 70%. Also, the pest or weed control at 100 ppm in series [3] was ≥ 70%.

`CCC(C)N(C)/C=N/c1cc(Cl)c(Oc2ccc(Cl)c(C(C)C)c2)cc1C` (stereo not shown) [Example 42]: the chromatographic logP in series [1] came to 2.9. Moreover, the pest or weed control at 1000 ppm in series [2] was ≥ 70%.

`CCC(C)N(C)/C=N/c1cc(Cl)c(Oc2ccc(Cl)c(C(C)(C)C)c2)cc1C` (stereo not shown) [Example 43]: in series [1], the chromatographic logP amounted to 3.19.

As to `Cc1cc(Oc2cc(C)c(/N=C/N(C)C(C)C)cc2C)ccc1F` [Example 44], the chromatographic logP in series [1] was 2.29. Besides, in series [2], the pest or weed control at 1000 ppm was ≥ 70%. For the same compound, the pest or weed control at 100 ppm in series [3] was ≥ 70%.

`Cc1cc(Oc2ccc(Cl)c(C(C)(C)C)c2)c(C)cc1/N=C/N1CCCCC1` [Example 45] had a logPa in series [1] of 3.02.

Regarding `CCN(C)/C=N/c1cc(C)c(Oc2ccc(Cl)c(CC(C)(C)C)c2)cc1C` [Example 46], in series [1], the logPa worked out at 3.11.

With `CCN(C)/C=N/c1cc(C)c(Oc2ccc(Cl)c(C[Si](C)(C)C)c2)cc1C` [Example 47], the logPa in series [1] is reported as 3.01.

With `CCN(C)/C=N/c1cc(C)c(Oc2ccc(Cl)c(C3CCCCC3)c2)cc1C` [Example 48], in series [1], the logPa amounted to 3.18.

As for `CCN(C)/C=N/c1cc(C)c(Oc2ccc(Cl)c(C)c2)cc1Cl` [Example 49], the chromatographic logP in series [1] turned out to be 2.39.

Consider `Cc1cc(Oc2cc(Cl)c(/N=C/N(C)C(C)C)cc2C)ccc1Cl` [Example 50], for which the chromatographic logP in series [1] is 2.48.

Turning to `Cc1cc(Oc2cc(Cl)c(/N=C/N3CCCCC3)cc2C)ccc1Cl` [Example 51], the logPa in series [1] came out at 2.58.

Take `Cc1cc(/N=C/N2CCCCC2)c(Cl)cc1Oc1ccc(Cl)c(C(C)(C)C)c1` [Example 53]: in series [1], the logPa is 3.25.

Consider `CCCCc1cc(Oc2cc(C)c(/N=C/N(C)CC)cc2C)ccc1Cl` [Example 55], for which the chromatographic logP in series [1] amounted to 2.95. Besides, in series [2], the pest or weed control at 1000 ppm was ≥ 70%.

Turning to `CCN(C)/C=N/c1cc(C)c(Oc2ccc(Cl)c(CC(C)C)c2)cc1C` [Example 56], the chromatographic logP in series [1] worked out at 2.92. Further, in series [2], the pest or weed control at 1000 ppm is ≥ 70%.

Turning to `CCN(C)/C=N/c1cc(C)c(Oc2ccc(Cl)c(C(C)(C)OC)c2)cc1C` [Example 57], the logPa in series [1] was 2.26.

With `CCN(C)/C=N/c1cc(C)c(Oc2ccc(Cl)c(C(C)C)c2)cc1Cl` [Example 60], the chromatographic logP in series [1] stood at 2.78.

Take `Cc1cc(Oc2ccc(Cl)c(C(C)(C)C)c2)c(C)cc1/N=C/N1CCC(F)(F)CC1` [Example 61]: the logPa in series [1] is on record as 3.25.

In the case of `CCN(C)/C=N/c1cc(Br)c(Oc2ccc(Cl)c(C(C)(C)C)c2)cc1C` [Example 63], the chromatographic logP in series [1] was 2.67.

Take `CCN(C)/C=N/c1cc(C)c(Oc2ccc(Cl)c(C3CCCC3)c2)cc1C` [Example 64]: in series [1], the logPa is on record as 3.28.

In series [1], `Cc1cc(Oc2ccc(Cl)c(CC(C)(C)C)c2)c(C)cc1/N=C/N1CCCCC1` [Example 65] gave a logPa of 3.19.

The values above are taken from patent US8183296B2, “Pesticide phenyloxy substituted phenylamidine derivatives” (Bayer Cropscience AG, priority 2005, dated 2012).
